Measured values taken from ChEMBL document CHEMBL1201862, “PubChem BioAssay data set” (2004).
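Dose response: 5 concentrations. Exposure: 48 h. Format: 96-well plates. Endpoint: linear interpolation; highest concentration if not reached. GI50 = concentration required for 50% inhibition of growth.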 The source made the active and inactive calls. No stated cut-off is given here; in the data, active = GI50 up to about 1.1 µM and inactive = higher.

Assays:
Test in all cases: growth of human tumour cells (NCI), 48 h
786-0 = tested on: 786-0
A498 = tested on: A498
A549 = tested on: A549
ACHN = tested on: ACHN
BT-549 = tested on: BT-549
CAKI-1 = tested on: CAKI-1
CCRF-CEM = tested on: CCRF-CEM
COLO 205 = tested on: COLO 205
DU-145 = tested on: DU-145
EKVX = tested on: EKVX
HCC 2998 = tested on: HCC 2998
HCT-116 = tested on: HCT-116
HCT-15 = tested on: HCT-15
HL-60 = tested on: HL-60
HOP-62 = tested on: HOP-62
HOP-92 = tested on: HOP-92
HT-29 = tested on: HT-29
Hs-578T = tested on: Hs-578T
K562 = tested on: K562
KM12 = tested on: KM12
LOX IMVI = tested on: LOX IMVI
M14 = tested on: M14
MCF7 = tested on: MCF7
MDA-MB-231 = tested on: MDA-MB-231
MDA-MB-435 = tested on: MDA-MB-435
MDA-N = tested on: MDA-N
MOLT-4 = tested on: MOLT-4
Malme-3M = tested on: Malme-3M
NCI-H226 = tested on: NCI-H226
NCI-H23 = tested on: NCI-H23
NCI-H460 = tested on: NCI-H460
NCI-H522 = tested on: NCI-H522
NCI/ADR-RES = tested on: NCI/ADR-RES
OVCAR-3 = tested on: OVCAR-3
OVCAR-4 = tested on: OVCAR-4
OVCAR-5 = tested on: OVCAR-5
OVCAR-8 = tested on: OVCAR-8
PC-3 = tested on: PC-3
RXF 393 = tested on: RXF 393
SF-268 = tested on: SF-268
SF-295 = tested on: SF-295
SF-539 = tested on: SF-539
SK-MEL-28 = tested on: SK-MEL-28
SK-MEL-2 = tested on: SK-MEL-2
SK-MEL-5 = tested on: SK-MEL-5
SK-OV-3 = tested on: SK-OV-3
SN12C = tested on: SN12C
SNB-19 = tested on: SNB-19
SNB-75 = tested on: SNB-75
SR = tested on: SR
SW-620 = tested on: SW-620
T47D = tested on: T47D
TK-10 = tested on: TK-10
U-251 = tested on: U-251
UACC-257 = tested on: UACC-257
UACC-62 = tested on: UACC-62
UO-31 = tested on: UO-31
RPMI-8226 = tested on: RPMI-8226
IGROV-1 = tested on: IGROV-1

Measured: GI50

CCSSCS(C)(=O)=O
active: MOLT-4 0.975 µM
inactive: 786-0 5.82 µM | A498 32.3 µM | A549 36.7 µM | ACHN 30.5 µM | BT-549 32.1 µM | CAKI-1 34.8 µM | CCRF-CEM 3.9 µM | COLO 205 6.4 µM | DU-145 19.1 µM | EKVX 55.1 µM | HCC 2998 18.9 µM | HCT-116 23.6 µM | HL-60 11.9 µM | HOP-62 39.3 µM | HOP-92 16.9 µM | HT-29 30.4 µM | Hs-578T 43.5 µM | K562 3.88 µM | KM12 61.7 µM | LOX IMVI 34.8 µM | M14 20.4 µM | MCF7 22.5 µM | MDA-MB-231 89.1 µM | MDA-MB-435 22.6 µM | MDA-N 10.5 µM | Malme-3M 77.3 µM | NCI-H226 29.8 µM | NCI-H23 32.9 µM | NCI-H460 33.5 µM | NCI-H522 18.9 µM | NCI/ADR-RES 31.8 µM | OVCAR-3 26.5 µM | OVCAR-4 17.8 µM | OVCAR-5 53.1 µM | OVCAR-8 21.6 µM | PC-3 40 µM | RXF 393 22.1 µM | SF-268 44.5 µM | SF-295 59.3 µM | SF-539 8.81 µM | SK-MEL-28 58.5 µM | SK-MEL-2 39.1 µM | SK-MEL-5 32.7 µM | SK-OV-3 56.6 µM | SN12C 24.8 µM | SNB-19 42.7 µM | SNB-75 23.3 µM | SR 12.9 µM | SW-620 5.05 µM | T47D 35.2 µM | TK-10 36.3 µM | U-251 36.4 µM | UACC-257 21.3 µM | UACC-62 60.5 µM | UO-31 11 µM
8.02 µM: HCT-15

O=C1CSC(c2ccc([N+](=O)[O-])cc2)N1c1ccc(-c2ccc(-n3c(-c4ccccc4)nc4ccccc4c3=O)cc2)cc1 (stereo not drawn)
inactive: 786-0 70.8 µM | A498 > 100 µM | A549 57 µM | ACHN 56.5 µM | BT-549 53.3 µM | CAKI-1 > 100 µM | CCRF-CEM 25.7 µM | COLO 205 43.5 µM | DU-145 > 100 µM | EKVX 38.5 µM | HCC 2998 35.7 µM | HCT-116 60.5 µM | HL-60 26.5 µM | HOP-62 > 100 µM | HOP-92 41.7 µM | HT-29 49.7 µM | Hs-578T > 100 µM | K562 34.4 µM | KM12 21.4 µM | LOX IMVI 52.5 µM | M14 59 µM | MCF7 33.1 µM | MDA-MB-231 49.8 µM | MDA-MB-435 59.7 µM | MDA-N 75 µM | MOLT-4 20.4 µM | Malme-3M 58.1 µM | NCI-H226 56.1 µM | NCI-H23 > 100 µM | NCI-H460 38.4 µM | NCI-H522 > 100 µM | NCI/ADR-RES 43.9 µM | OVCAR-3 53.1 µM | OVCAR-4 34.2 µM | OVCAR-5 > 100 µM | OVCAR-8 46.9 µM | PC-3 36.4 µM | RPMI-8226 32.5 µM | SF-268 > 100 µM | SF-295 85.3 µM | SF-539 > 100 µM | SK-MEL-28 81.3 µM | SK-MEL-2 44.2 µM | SK-MEL-5 17.3 µM | SK-OV-3 > 100 µM | SN12C > 100 µM | SNB-19 > 100 µM | SR 18.7 µM | SW-620 > 100 µM | T47D 21.5 µM | TK-10 66.2 µM | U-251 83 µM | UACC-257 > 100 µM | UACC-62 35.1 µM | UO-31 46.8 µM
33.7 µM: HCT-15

COc1ccc(OC)c2sc(N3C(=O)/C(=C/c4ccccc4S)N=C3c3ccccc3)nc12
34.1 µM: HCT-15
inactive: 786-0 59.2 µM | A498 55.5 µM | A549 42.8 µM | ACHN 34.8 µM | BT-549 45.9 µM | CAKI-1 95.9 µM | CCRF-CEM 22.3 µM | COLO 205 32.8 µM | DU-145 49.4 µM | EKVX 32.1 µM | HCC 2998 > 100 µM | HCT-116 28.2 µM | HL-60 26.1 µM | HOP-62 82.6 µM | HOP-92 > 100 µM | HT-29 38.9 µM | Hs-578T 49.7 µM | IGROV-1 90.4 µM | K562 26 µM | KM12 41 µM | LOX IMVI 24.9 µM | M14 36.5 µM | MCF7 18.7 µM | MDA-MB-231 > 100 µM | MDA-MB-435 17.6 µM | MDA-N 21.8 µM | MOLT-4 8.83 µM | NCI-H460 53.8 µM | NCI/ADR-RES 77.8 µM | OVCAR-3 37.5 µM | OVCAR-4 39.5 µM | OVCAR-5 > 100 µM | OVCAR-8 47.2 µM | PC-3 19.7 µM | RPMI-8226 22.6 µM | RXF 393 18.8 µM | SF-268 59.7 µM | SF-295 52.4 µM | SF-539 28.6 µM | SK-MEL-28 > 100 µM | SK-MEL-2 25.8 µM | SK-MEL-5 18.4 µM | SK-OV-3 > 100 µM | SN12C 26.9 µM | SNB-19 69.2 µM | SNB-75 16.5 µM | SR 14.4 µM | SW-620 39.2 µM | T47D 24.2 µM | TK-10 > 100 µM | U-251 23.8 µM | UACC-257 63 µM | UACC-62 21.5 µM | UO-31 28.1 µM

CN(C)CCn1c(=O)c2ccc3c4c(nn3CCN(C)C)c3cc([N+](=O)[O-])ccc3n(c1=O)c24
active: 786-0 < 0.0124 µM | A498 0.317 µM | A549 0.0264 µM | ACHN 0.0384 µM | BT-549 0.906 µM | CAKI-1 0.0481 µM | CCRF-CEM < 0.0125 µM | COLO 205 0.0548 µM | DU-145 0.0508 µM | EKVX 0.115 µM | HCC 2998 0.0411 µM | HCT-116 < 0.0154 µM | HL-60 0.09 µM | HOP-62 < 0.0212 µM | HOP-92 0.8 µM | HT-29 < 0.0112 µM | Hs-578T 0.144 µM | IGROV-1 0.0708 µM | K562 0.0394 µM | KM12 0.0263 µM | LOX IMVI 0.0447 µM | M14 0.222 µM | MCF7 0.0667 µM | MDA-MB-231 0.0929 µM | MDA-MB-435 0.0675 µM | MDA-N 0.0724 µM | MOLT-4 < 0.01 µM | Malme-3M 0.328 µM | NCI-H226 0.518 µM | NCI-H23 0.105 µM | NCI-H460 < 0.0128 µM | NCI-H522 < 0.01 µM | NCI/ADR-RES 0.0859 µM | OVCAR-3 0.0883 µM | OVCAR-4 0.0189 µM | OVCAR-5 < 0.0253 µM | OVCAR-8 0.049 µM | PC-3 0.0641 µM | RPMI-8226 0.0194 µM | RXF 393 0.12 µM | SF-268 < 0.0256 µM | SF-295 0.0585 µM | SF-539 0.394 µM | SK-MEL-28 0.51 µM | SK-MEL-2 0.133 µM | SK-MEL-5 0.594 µM | SK-OV-3 0.0783 µM | SN12C < 0.0207 µM | SNB-19 0.0438 µM | SR < 0.01 µM | SW-620 < 0.0134 µM | T47D 0.249 µM | TK-10 0.212 µM | U-251 0.0281 µM | UACC-257 0.617 µM | UACC-62 0.337 µM | UO-31 0.0661 µM
0.0261 µM: HCT-15

O=C1C=CC(=O)N1n1c(Cc2ccccc2)n[nH]c1=O
> 100 µM: HCT-15
inactive: 786-0 > 100 µM | A498 > 100 µM | A549 > 100 µM | ACHN > 100 µM | BT-549 > 100 µM | CAKI-1 > 100 µM | CCRF-CEM > 100 µM | COLO 205 > 100 µM | DU-145 > 100 µM | EKVX > 100 µM | HCC 2998 > 100 µM | HCT-116 > 100 µM | HL-60 > 100 µM | HOP-62 > 100 µM | HOP-92 > 100 µM | HT-29 > 100 µM | Hs-578T > 100 µM | IGROV-1 > 100 µM | K562 > 100 µM | KM12 > 100 µM | LOX IMVI > 100 µM | MCF7 > 100 µM | MDA-MB-231 > 100 µM | MDA-MB-435 > 100 µM | MDA-N > 100 µM | MOLT-4 > 100 µM | Malme-3M > 100 µM | NCI-H226 > 100 µM | NCI-H23 > 100 µM | NCI-H460 > 100 µM | NCI-H522 > 100 µM | NCI/ADR-RES > 100 µM | OVCAR-3 > 100 µM | OVCAR-4 > 100 µM | OVCAR-5 > 100 µM | OVCAR-8 > 100 µM | PC-3 > 100 µM | RPMI-8226 > 100 µM | RXF 393 > 100 µM | SF-268 > 100 µM | SF-295 > 100 µM | SF-539 > 100 µM | SK-MEL-28 > 100 µM | SK-MEL-2 > 100 µM | SK-MEL-5 > 100 µM | SK-OV-3 > 100 µM | SN12C > 100 µM | SNB-19 > 100 µM | SR > 100 µM | SW-620 > 100 µM | T47D > 100 µM | TK-10 > 100 µM | U-251 > 100 µM | UACC-257 > 100 µM | UACC-62 > 100 µM | UO-31 > 100 µM
